In patent publication US4876245A, “Fluorine-containing macrolide compounds and their use” (Daikin Industries Ltd., priority 1986, dated 1989):
≈ marks a conversion by molar mass, not a printed value.

Experiments:
Type in all cases: cell-based
[1] = tested on: Fusobacterium necrophorum; experiment: antimicrobial activity, agar streak method (MIC), anaerobic
Hemophilus influenzae = experiment: antimicrobial activity, agar streak method (MIC), aerobic gram-negative; settings: Haemophilus influenzae
Streptococcus pneumoniae = experiment: antimicrobial activity, agar streak method (MIC), aerobic gram-positive
Salmonella typhi = experiment: antimicrobial activity, agar streak method (MIC), aerobic gram-negative; settings: Salmonella enterica
Pseudomonas aeruginosa = experiment: as above
Neisseria gonorrhoeae = experiment: as above
Micrococcus luteus = experiment: antimicrobial activity, agar streak method (MIC), aerobic gram-positive
Bacillus natto = experiment: as above; settings: Bacillus subtilis
Clostridium perfringens = experiment: microbe, parasite or virus in culture
Staphylococcus aureus = experiment: antimicrobial activity, agar streak method (MIC), aerobic gram-positive
Streptococcus pyogenes = experiment: as above
Bacterioides fragilis = experiment: antimicrobial activity, agar streak method (MIC), anaerobic
Proteus vulgaris = experiment: antimicrobial activity, agar streak method (MIC), aerobic gram-negative
Shigella sonnei = experiment: as above
From the text: The antimicrobial activities of 8,9-difluoroerythromycin 6,9-epoxide (Example 1), 8,9-difluoroerythromycin 6,9-epoxide 11,12-carbonate (Example 2) and 8,9-difluoroerythromycin 6,9-epoxide 11,12-sulfite (Example 4) are examined by an agar streak method and expressed in terms of minimal inhibitory concentrations (MIC, μg/ml) against the following bacteria.

Acholeplasma laidlawii = experiment: as above
Bacillus subtilis = experiment: antimicrobial activity, agar streak method (MIC), aerobic gram-positive
Mycoplasma homilis = experiment: antimicrobial activity, agar streak method (MIC)
[2] = tested on: Corynebacterium diphtheriae; experiment: antimicrobial activity, agar streak method (MIC), aerobic gram-positive
Streptococcus faecalis = experiment: as above; settings: Enterococcus faecalis
Escherichia coli = experiment: antimicrobial activity, agar streak method (MIC), aerobic gram-negative

Row | Structure (SMILES) | MIC [1] | MIC (Hemophilus influenzae) | MIC (Streptococcus pneumoniae) | MIC (Salmonella typhi) | MIC (Pseudomonas aeruginosa) | MIC (Neisseria gonorrhoeae) | MIC (Micrococcus luteus) | MIC (Bacillus natto) | MIC (Clostridium perfringens) | MIC (Staphylococcus aureus) | MIC (Streptococcus pyogenes) | MIC (Bacterioides fragilis) | MIC (Proteus vulgaris) | MIC (Shigella sonnei) | MIC (Acholeplasma laidlawii) | MIC (Bacillus subtilis) | MIC (Mycoplasma homilis) | MIC [2] | MIC (Streptococcus faecalis) | MIC (Escherichia coli)
1 | CC[C@H]1OC(=O)[C@H](C)[C@@H](O[C@H]2C[C@@](C)(OC)[C@@H](O)[C@H](C)O2)[C@H](C)[C@@H](O[C@@H]2O[C@H](C)C[C@H](N(C)C)[C@H]2O)[C@@]2(C)CC(C)(F)C(F)(O2)[C@H](C)[C@H]2OS(=O)O[C@@]21C (stereo partly drawn) [Example 4, 8,9-difluoroerythromycin A 6,9-epoxide 11,12-sulfite] | 8 µg/mL (≈ 10 µM) | 7 µg/mL (≈ 8.75 µM) | 0.013 µg/mL (≈ 0.0163 µM) | 13.2 µg/mL (≈ 16.5 µM) | 26 µg/mL (≈ 32.5 µM) | 0.052 µg/mL (≈ 0.065 µM) | 0.02 µg/mL (≈ 0.025 µM) | 0.078 µg/mL (≈ 0.0975 µM) | 0.3 µg/mL (≈ 0.375 µM) | 0.156 µg/mL (≈ 0.195 µM) | 0.011 µg/mL (≈ 0.0138 µM) | 0.84 µg/mL (≈ 1.05 µM) | 26 µg/mL (≈ 32.5 µM) | 12.5 µg/mL (≈ 15.6 µM) | 0.2 µg/mL (≈ 0.25 µM) | 0.049 µg/mL (≈ 0.0613 µM) | 25 µg/mL (≈ 31.3 µM) | 0.022 µg/mL (≈ 0.0275 µM) | 0.625 µg/mL (≈ 0.781 µM) | 7.8 µg/mL (≈ 9.75 µM)
2 | CC[C@H]1OC(=O)[C@H](C)[C@@H](O[C@H]2C[C@@](C)(OC)[C@@H](O)[C@H](C)O2)[C@H](C)[C@@H](O[C@@H]2O[C@H](C)C[C@H](N(C)C)[C@H]2O)[C@@]2(C)CC(C)(F)C(F)(O2)[C@H](C)[C@@H](O)[C@]1(C)O (stereo partly drawn) [Example 1, 8,9-difluoroerythromycin A 6,9-epoxide] | 2 µg/mL (≈ 2.65 µM) | 3.5 µg/mL (≈ 4.64 µM) | 0.025 µg/mL (≈ 0.0332 µM) | 13.2 µg/mL (≈ 17.5 µM) | 26 µg/mL (≈ 34.5 µM) | 0.052 µg/mL (≈ 0.069 µM) | 0.006 µg/mL (≈ 0.00796 µM) | 0.078 µg/mL (≈ 0.103 µM) | 0.83 µg/mL (≈ 1.1 µM) | 0.156 µg/mL (≈ 0.207 µM) | 0.011 µg/mL (≈ 0.0146 µM) | 0.21 µg/mL (≈ 0.279 µM) | 26 µg/mL (≈ 34.5 µM) | 25 µg/mL (≈ 33.2 µM) | 0.1 µg/mL (≈ 0.133 µM) | 0.049 µg/mL (≈ 0.065 µM) | 25 µg/mL (≈ 33.2 µM) | 0.011 µg/mL (≈ 0.0146 µM) | 1.25 µg/mL (≈ 1.66 µM) | 31.2 µg/mL (≈ 41.5 µM)
3 | CC[C@H]1OC(=O)[C@H](C)[C@@H](O[C@H]2C[C@@](C)(OC)[C@@H](O)[C@H](C)O2)[C@H](C)[C@@H](O[C@@H]2O[C@H](C)C[C@H](N(C)C)[C@H]2O)[C@@]2(C)CC(C)(F)C(F)(O2)[C@H](C)[C@H]2OC(=O)O[C@@]21C (stereo partly drawn) [Example 2, 8,9-difluoroerythromycin A 6,9-epoxide 11,12-carbonate] | 8 µg/mL (≈ 10.3 µM) | 7 µg/mL (≈ 8.98 µM) | 0.013 µg/mL (≈ 0.0167 µM) | 13.2 µg/mL (≈ 16.9 µM) | 26 µg/mL (≈ 33.3 µM) | 0.052 µg/mL (≈ 0.0667 µM) | 0.02 µg/mL (≈ 0.0256 µM) | 0.078 µg/mL (≈ 0.1 µM) | 3.3 µg/mL (≈ 4.23 µM) | 0.156 µg/mL (≈ 0.2 µM) | 0.011 µg/mL (≈ 0.0141 µM) | 0.84 µg/mL (≈ 1.08 µM) | 26 µg/mL (≈ 33.3 µM) | 12.5 µg/mL (≈ 16 µM) | 0.2 µg/mL (≈ 0.256 µM) | 0.049 µg/mL (≈ 0.0628 µM) | 25 µg/mL (≈ 32.1 µM) | 0.022 µg/mL (≈ 0.0282 µM) | 0.625 µg/mL (≈ 0.801 µM) | 7.8 µg/mL (≈ 10 µM)
